Like-named read-outs stand apart in the source and are kept apart here.
Tests used:
[1] = biological target: T1, human OATP1B3 transporter (Homo sapiens, UniProt Q9NPD5); assay: Uptake into OATP1B3 and empty vector transfected HEK293 cells; type: in vitro ADME; conditions: for Uptake rate Mean: 2 min; for Uptake ratio: OATP1B3 vs control
T1 construct: expressed in transfected cells; host or cells: HEK293 (transient transfection)
T1 sequence (Q9NPD5 1-702): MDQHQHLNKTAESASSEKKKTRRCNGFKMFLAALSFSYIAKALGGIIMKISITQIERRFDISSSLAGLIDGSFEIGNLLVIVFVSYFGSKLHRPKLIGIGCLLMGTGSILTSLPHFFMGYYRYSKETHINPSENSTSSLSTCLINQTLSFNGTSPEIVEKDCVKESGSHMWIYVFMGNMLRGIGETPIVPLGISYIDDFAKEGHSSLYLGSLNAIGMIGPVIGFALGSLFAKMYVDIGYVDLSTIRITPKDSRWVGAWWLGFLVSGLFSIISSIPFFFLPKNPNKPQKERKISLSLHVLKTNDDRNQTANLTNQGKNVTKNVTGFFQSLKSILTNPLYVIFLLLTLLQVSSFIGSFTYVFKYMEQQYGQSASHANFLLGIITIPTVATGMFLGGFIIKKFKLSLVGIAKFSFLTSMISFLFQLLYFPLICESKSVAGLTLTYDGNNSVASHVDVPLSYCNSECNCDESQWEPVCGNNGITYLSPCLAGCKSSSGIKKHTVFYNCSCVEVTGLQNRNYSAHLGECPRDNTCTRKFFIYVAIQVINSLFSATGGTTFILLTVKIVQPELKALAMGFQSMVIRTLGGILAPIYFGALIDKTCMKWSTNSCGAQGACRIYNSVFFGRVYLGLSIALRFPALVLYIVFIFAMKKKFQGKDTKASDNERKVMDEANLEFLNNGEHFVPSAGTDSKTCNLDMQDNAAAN
Description: Test compound (at 1 and 10 μM) was incubated with both SLC transporter-expressing HEK293 cells and control (empty vector) HEK293 cells for 2 min.

[2] = biological target: CYP2C19 (Homo sapiens, UniProt P33261); assay: Cytochrome P450 reaction phenotyping, recombinant CYP2C19 (Bactosomes); conditions: for Compound Remaining (% of 0 min): CYP2C19, 5 μM
CYP2C19, sequence (P33261 whole entry, canonical isoform): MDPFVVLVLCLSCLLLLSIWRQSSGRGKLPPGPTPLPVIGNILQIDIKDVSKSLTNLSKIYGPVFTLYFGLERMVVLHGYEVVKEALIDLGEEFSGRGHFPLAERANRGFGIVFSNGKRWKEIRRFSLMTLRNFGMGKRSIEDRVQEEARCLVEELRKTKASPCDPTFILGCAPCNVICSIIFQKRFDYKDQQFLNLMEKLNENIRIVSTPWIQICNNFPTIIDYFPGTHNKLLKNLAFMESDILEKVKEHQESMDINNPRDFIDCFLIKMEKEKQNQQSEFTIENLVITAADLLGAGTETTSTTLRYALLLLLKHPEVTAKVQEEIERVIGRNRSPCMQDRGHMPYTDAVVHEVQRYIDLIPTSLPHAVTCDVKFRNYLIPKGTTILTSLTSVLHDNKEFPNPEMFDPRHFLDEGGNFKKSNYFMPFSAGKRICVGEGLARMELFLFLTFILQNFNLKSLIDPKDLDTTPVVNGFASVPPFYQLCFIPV
Description: Incubations were also performed using control Bactosomes™ (no P450 enzymes present) to reveal any non-enzymatic degradation. Control compounds known to be metabolised specifically by each P450 isoform were included. All incubations were performed singularly for each test compound.
Incubations were also performed using control Bactosomes™ (no P450 enzymes present) to reveal any non-enzymatic degradation. Control compounds known to be metabolised specifically by each P450 isoform were included. All incubations were performed singularly for each test compound. […] The reactions were stopped by transferring an aliquot of incubate to quench solvent at the appropriate time points, in a 1:3 ratio. The termination plates were centrifuged at 3,000 rpm for 20 min at 4° C. to precipitate the protein.

[3] = tested on: OVXF 1023L; assay: 2D monolayer CellTiter-Blue viability, ovarian cancer OVXF 1023L; type: cell-based; conditions: for IC50: Homo sapiens, OVXF1023; for Test/Control (%) at Drug Concentration: 72 h
Description: (§1) Mebendazole was tested in vitro across a panel of 12 tumor cell lines of ovarian and renal cancer by using a 2D monolayer assay. […] OVXF 899L and RXF 486L are P-gp expressing, multidrug resistant cell lines.
(§2) Anti-tumor activity is expressed as absolute and relative IC50/70 values, calculated by 4-parameter non-linear curve fit.

[4] = tested on: RXF 2282L; assay: 2D monolayer CellTiter-Blue viability, renal cancer RXF 2282L; type: cell-based; conditions: for Test/Control (%) at Drug Concentration: 72 h
Description: as §1, §2

[5] = in vitro; conditions: human, hepatocytes, t½
Description: Mebendazole (1 μM) was incubated with cryopreserved human hepatocytes for 60 min in the absence and presence of cimetidine at 30, 100 and 300 μM) and thiabendazole at 10, 30 and 100 μM and samples taken at the required time points. The amount of test compound remaining at each time point was analysed by LC-MS/MS. Appropriate control compounds were also incubated along with ethoxycoumarin, which was incubated in the absence and presence of cimetidine and thiabendazole.
The final incubation volume was 500 μL. Two control compounds were included, alongside appropriate vehicle control. A positive control compound, ethoxycoumarin, for CYP1A2 was included. The positive control compound was incubated without inhibitor and in the presence of each inhibitor. The reactions were stopped by transferring 50 μL of incubate to 100 μL acetonitrile containing internal standard at the appropriate time points (0, 5, 10, 20, 40 and 60 min). The termination plates were centrifuged at 2500 rpm at 4° C. for 30 min to precipitate the protein.

[6] = in vitro; conditions: human; for half-life at 1 μM: cryopreserved hepatocytes; for hepatocyte CLint at 1 µM: cryopreserved hepatocytes (suspension)
Description: (§3) The amount of test compound remaining at each time point was analysed by LC-MS/MS. Appropriate control compounds were also incubated.
(§4) The final incubation volume was 500 μL. Appropriate control compounds were included, alongside appropriate vehicle control.
(§5) The reactions were stopped by transferring 50 μL of incubate to 100 μL acetonitrile containing internal standard at the appropriate time points (0, 5, 10, 20, 40 and 60 min). The termination plates were centrifuged at 2500 rpm at 4° C. for 30 min to precipitate the protein.

[7] = in vitro; conditions: human, cryopreserved hepatocytes (suspension)
Description: as §3, §4, §5

Uptake rate Mean ([1]; 1 μM, OATP1B3 HEK293 cells): 56.6 pmol/mg | Uptake ratio ([1]; 1 μM): 1.1 | Uptake rate Mean ([1]; 1 μM, control (empty vector) HEK293 cells): 50.1 pmol/mg | Uptake rate Mean ([1]; 10 μM, OATP1B3 HEK293 cells): 466 pmol/mg | Uptake ratio ([1]; 10 μM): 1.1 | Uptake rate Mean ([1]; 10 μM, control (empty vector) HEK293 cells): 414 pmol/mg | substrate of the human OATP1B3 transporter ([1]; 1 and 10 μM): not a substrate | Compound Remaining (% of 0 min) ([2]; 0 min): 100 % of 0 min | Compound Remaining (% of 0 min) ([2]; 5 min): 92.6 % of 0 min | Compound Remaining (% of 0 min) ([2]; 15 min): 82.1 % of 0 min | Compound Remaining (% of 0 min) ([2]; 30 min): 76.3 % of 0 min | Compound Remaining (% of 0 min) ([2]; 45 min): 70.5 % of 0 min | half-life at 5 μM ([2]; human, recombinant CYP2C19 (Bactosomes), pH 7.4): 1.55 h | IC50 ([3]; OVXF 1023, 72 h, read-out: Abs. IC50): > 3.2 µM | IC50 ([3]; OVXF 1023, 72 h, read-out: Rel. IC50): > 3.2 µM | IC50 ([4]; RXF 2282, 72 h, read-out: Abs. IC50): > 3.2 µM | IC50 ([4]; RXF 2282, 72 h, read-out: Rel. IC50): > 3.2 µM | half-life at 1 μM [5]: 1.54 h | half-life at 1 μM [6]: 1.92 h | hepatocyte CLint at 1 µM [6]: 12.1 ± 0.601 µL/min/1e6 cells | hepatocyte CLint at 1 µM ([6]; with cimetidine 30 µM): 24.8 ± 1.82 µL/min/1e6 cells | hepatocyte CLint at 1 µM ([6]; with cimetidine 100 µM): 18 ± 1.19 µL/min/1e6 cells | hepatocyte CLint at 1 µM ([6]; with cimetidine 300 µM): 24.8 ± 2.36 µL/min/1e6 cells | hepatocyte CLint at 1 µM ([6]; with fluvoxamine 3 µM): 8.14 ± 1.53 µL/min/1e6 cells | hepatocyte CLint at 1 µM ([6]; with fluvoxamine 10 μM): 10.8 ± 2.32 µL/min/1e6 cells | half-life at 1 μM ([6]; with cimetidine 30 μM): 0.932 h | half-life at 1 μM ([6]; with cimetidine 100 μM): 1.29 h | half-life at 1 μM ([6]; with cimetidine 300 μM): 0.932 h | half-life at 1 μM ([6]; with fluvoxamine 3 μM): 2.83 h | half-life at 1 μM ([6]; with fluvoxamine 10 μM): 2.13 h | half-life at 1 μM ([6]; with mexiletine 10 μM): 5.1 h | half-life at 1 μM ([6]; with mexiletine 30 μM): 2.2 h | half-life at 1 μM ([6]; with mexiletine 100 μM): 2 h | half-life at 1 μM [7]: 1.52 h | hepatocyte CLint at 1 µM [7]: 15.2 µL/min/1e6 cells | half-life at 1 μM ([7]; with fluvoxamine 10 μM): 30.7 h | hepatocyte CLint at 1 µM ([7]; with fluvoxamine 10 μM): 0.751 µL/min/1e6 cells | half-life at 1 μM ([7]; with fluvoxamine 300 μM): 3.75 h | hepatocyte CLint at 1 µM ([7]; with fluvoxamine 300 μM): 6.16 ± 1.7 µL/min/1e6 cells | half-life at 1 μM ([7]; with mexiletine 10 μM): 2.27 h | half-life at 1 μM ([7]; with mexiletine 30 μM): 11.9 h | half-life at 1 μM ([7]; with mexiletine 100 μM): 5.28 h | half-life at 1 μM ([7]; with mexiletine 300 μM): 11.1 h | hepatocyte CLint at 1 µM ([7]; with mexiletine 300 μM): 2.08 ± 1.8 µL/min/1e6 cells
Compound: COC(=O)Nc1nc2ccc(C(=O)c3ccccc3)cc2[nH]1 [Mebendazole, methyl N-(6-benzoyl-1H-benzimidazol-2-yl)carbamate]
Test/Control (%) at Drug Concentration ([3]; OVXF 1023, 1.0E+00 μM): 69% | Test/Control (%) at Drug Concentration ([3]; OVXF 1023, 1.0E−01 μM): 94% | Test/Control (%) at Drug Concentration ([3]; OVXF 1023, 1.0E−02 μM): 101% | Test/Control (%) at Drug Concentration ([3]; OVXF 1023, 1.0E−03 μM): 104% | Test/Control (%) at Drug Concentration ([3]; OVXF 1023, 1.0E−04 μM): 107% | Test/Control (%) at Drug Concentration ([3]; OVXF 1023, 3.2E+00 μM): 62% | Test/Control (%) at Drug Concentration ([3]; OVXF 1023, 3.2E−01 μM): 82% | Test/Control (%) at Drug Concentration ([3]; OVXF 1023, 3.2E−02 μM): 98% | Test/Control (%) at Drug Concentration ([3]; OVXF 1023, 3.2E−03 μM): 101% | Test/Control (%) at Drug Concentration ([3]; OVXF 1023, 3.2E−04 μM): 103% | Abs. IC70 ([3]; OVXF 1023, 72 h): >3.200 µM | Rel. IC70 ([3]; OVXF 1023, 72 h): >3.200 µM | Bot. (%) ([3]; OVXF 1023, 72 h, curve fit): 2% | Top (%) ([3]; OVXF 1023, 72 h, curve fit): 105% | Test/Control (%) at Drug Concentration ([4]; RXF 2282, 1.0E+00 μM): 71% | Test/Control (%) at Drug Concentration ([4]; RXF 2282, 1.0E−01 μM): 83% | Test/Control (%) at Drug Concentration ([4]; RXF 2282, 1.0E−02 μM): 84% | Test/Control (%) at Drug Concentration ([4]; RXF 2282, 1.0E−03 μM): 88% | Test/Control (%) at Drug Concentration ([4]; RXF 2282, 1.0E−04 μM): 108% | Test/Control (%) at Drug Concentration ([4]; RXF 2282, 3.2E+00 μM): 57% | Test/Control (%) at Drug Concentration ([4]; RXF 2282, 3.2E−01 μM): 77% | Test/Control (%) at Drug Concentration ([4]; RXF 2282, 3.2E−02 μM): 86% | Test/Control (%) at Drug Concentration ([4]; RXF 2282, 3.2E−03 μM): 89% | Test/Control (%) at Drug Concentration ([4]; RXF 2282, 3.2E−04 μM): 92% | Abs. IC70 ([4]; RXF 2282, 72 h): >3.200 µM | Rel. IC70 ([4]; RXF 2282, 72 h): >3.200 µM | Bot. (%) ([4]; RXF 2282, 72 h, curve fit): 0% | Top (%) ([4]; RXF 2282, 72 h, curve fit): 102%
